{
  "source": "patent US6375634B1",
  "about": "“APPARATUS AND METHOD TO ENCAPSULATE, KILL AND REMOVE MALIGNANCIES, INCLUDING SELECTIVELY INCREASING ABSORPTION OF X-RAYS AND INCREASING FREE-RADICAL DAMAGE TO RESIDUAL TUMORS TARGETED BY IONIZING AND NON-IONIZING RADIATION THERAPY” (Oncology Innovations, Inc., priority 1997, dated 2002)",
  "origin": "cited, not measured here",
  "key": {"[1]": {"system": "human pancreatic adenocarcinoma AsPC-1 cells"}, "[2]": {"system": "DNA", "settings": "in the presence of hydrogen peroxide, among ferric iron chelates"}, "[3]": {"system": "DNA"}, "[4]": {"settings": "iron overload states"}, "[5]": {"settings": "presence of l-histidine"}, "[6]": {"system": "Chinese hamster ovary cells"}},
  "note": "Entries after “also recorded” stand apart in the source; their conditions may differ.",
  "data": [
    {"molecule": "Cc1c(N)nc([C@H](CC(N)=O)NC[C@H](N)C(N)=O)nc1C(=O)N[C@H](C(=O)N[C@H](C)[C@@H](O)[C@H](C)C(=O)N[C@H](C(=O)NCCc1nc(-c2nc(C(=O)NCCC[S+](C)C)cs2)cs1)[C@@H](C)O)[C@@H](O[C@@H]1O[C@@H](CO)[C@@H](O)[C@H](O)[C@@H]1O[C@H]1O[C@H](CO)[C@@H](O)[C@H](OC(N)=O)[C@@H]1O)c1c[nH]cn1.[Br-]", "note": "[Bleomycin A2]", "values": [
      {"measurement": "cell cycle effect in flow-cytometric analysis", "setting": "[1]", "result": "induced G2/M block"},
      {"measurement": "induction of apoptosis", "setting": "[1]", "result": "did not induce apoptosis"}
    ]},
    {"molecule": "O=C(O)CN(CC(=O)O)CC(=O)O.[Fe+3]", "note": "[ferric nitrilo tri-acetic acid]", "values": [
      {"measurement": "DNA damage", "setting": "[2]", "result": "produced the most DNA damage"}
    ]},
    {"molecule": "OO", "note": "[hydrogen peroxide]", "values": [
      {"measurement": "DNA injury", "setting": "[3]; 80 micromoles hydrogen peroxide, absence of histidine", "result": "no injury"}
    ]},
    {"molecule": "[Fe]", "note": "[iron]", "values": [
      {"measurement": "tissue iron level at which the heart sustains injury", "setting": "[4]", "result": "approximately one thousand"}
    ]},
    {"molecule": "N[C@@H](Cc1c[nH]cn1)C(=O)O", "note": "[l-histidine]", "values": [
      {"measurement": "sensitivity of hydrogen peroxide resistant cell lines", "setting": "[5]", "result": "rendered sensitive"},
      {"measurement": "DNA destroyed", "setting": "[3]; 80 micromoles hydrogen peroxide with 300 micromoles l-histidine present", "result": "more than 50%"}
    ]},
    {"molecule": "ferritin", "values": [
      {"measurement": "toxicity", "setting": "[6]; 32 micrograms/ml", "result": "nontoxic; also recorded: not toxic"},
      {"measurement": "reduction of clonogenic-cell survival after x-irradiation", "setting": "[6]; 32 micrograms/ml ferritin, 4.0 Gray", "result": "approximately 75%"},
      {"measurement": "clonogenic-cell survival after x-irradiation", "setting": "[6]; 32 micrograms/ml ferritin, 4.0 Gray (about 0.66 without ferritin)", "result": "~0.17"}
    ]}
  ]
}
